For the assay, the target named is T1, AAK1 (Homo sapiens, UniProt Q2M2I8).
T1 construct: NP_055726.2
T1 sequence (Q2M2I8 1-863 isoform Q2M2I8-2): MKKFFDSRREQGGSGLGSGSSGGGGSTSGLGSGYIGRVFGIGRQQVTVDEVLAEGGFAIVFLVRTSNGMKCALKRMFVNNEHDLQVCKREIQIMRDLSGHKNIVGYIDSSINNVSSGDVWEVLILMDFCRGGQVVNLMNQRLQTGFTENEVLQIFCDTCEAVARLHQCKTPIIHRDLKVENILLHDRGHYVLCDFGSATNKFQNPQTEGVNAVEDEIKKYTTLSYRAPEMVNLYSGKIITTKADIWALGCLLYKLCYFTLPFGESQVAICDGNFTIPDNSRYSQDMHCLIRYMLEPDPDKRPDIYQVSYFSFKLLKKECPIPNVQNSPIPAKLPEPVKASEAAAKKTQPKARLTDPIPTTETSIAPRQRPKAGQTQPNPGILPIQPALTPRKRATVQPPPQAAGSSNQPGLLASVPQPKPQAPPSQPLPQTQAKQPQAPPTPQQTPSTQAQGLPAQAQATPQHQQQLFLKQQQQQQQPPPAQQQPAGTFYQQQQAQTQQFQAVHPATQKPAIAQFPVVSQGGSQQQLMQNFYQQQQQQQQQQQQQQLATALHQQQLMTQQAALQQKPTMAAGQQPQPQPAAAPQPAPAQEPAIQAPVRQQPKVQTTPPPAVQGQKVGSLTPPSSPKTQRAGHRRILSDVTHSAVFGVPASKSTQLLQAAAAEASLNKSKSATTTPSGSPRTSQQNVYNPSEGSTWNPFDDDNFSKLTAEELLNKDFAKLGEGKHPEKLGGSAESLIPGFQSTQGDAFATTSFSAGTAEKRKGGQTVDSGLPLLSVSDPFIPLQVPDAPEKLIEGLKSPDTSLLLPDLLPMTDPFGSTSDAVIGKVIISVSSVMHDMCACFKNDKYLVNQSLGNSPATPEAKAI
Put plainly: P81 filter plate assay. The following applies: full-length human AAK1, Mu2 substrate, 33P-ATP. The class given is biochemical. The method, then: Compounds were serially diluted into a Labcyte LDV plate (Labcyte, cat#LP-0200) using a Mutiprobe (PerkinElmer) and Biomek FX (Beckman Coulter) so that the highest compound concentration was at 96 μM. Compounds were then pinged (75 nL per well) into a Greiner 384-well reaction plate (Greiner, #781076) using an ECHO 550 Liquid Handler (Labcyte). A total of 12 μl reaction buffer (IMAP buffer containing Tween and DTT, from Molecular Devices) was then added to each well of columns 1 and 13 for the negative controls and 12 μl of 2× AAK1 (0.2 nM full-length human protein, NCBI accession no. NP_055726.2) was added to the remaining wells. Enzyme was then pre-incubated with compound for 10 minutes at RT. Reactions were initiated upon Minitrak (PerkinElmer) addition of 12 μl substrate mix containing 2× Mu2 (0.2 μM, full length human protein), 2× cold ATP (2 μM), and 1.3 μCi of hot ^33P-ATP. […] proceeded for one hour at RT. Meanwhile, Millipore 384-well P81 filter plates (Millipore, catalog #MZPHNOW10) were placed on a plate washer (Zoom ZW, from Titertek) and pre-wet with 50 μl 1% phosphoric acid. Kinase reactions were then stopped upon addition of 24 μl of 2% phosphoric acid to each well and the Minitrak was then used to transfer 40 μl from each well into the pre-wet Millipore 384-well P81 filter plates. Reaction mixtures were incubated for 10 minutes at RT in the P81 plates, followed by washing five times with 100 μl/well of 1% phosphoric acid using the Zoom filter washer. The bottom of each filter plate was sealed followed by addition of 20 μl Microscint 40 to each well, sealing the top of the plates with Flashplate cover, and then waiting one hour until reading on the TopCount (PerkinElmer).
Take `COc1ncccc1-c1cnn2ccc(NCCNC(=O)OC(C)C)nc12` [isopropyl (2-((3-(2-methoxypyridin-3-yl)pyrazolo[1,5-a]pyrimidin-5-yl)amino)ethyl)carbamate]: the 50% inhibitory concentration (IC50) – broadly, the concentration that inhibits the measured activity by half – is at most 0.1 µM.
Take `COc1cc(-c2cnn3ccc(N4CCN(C(=O)OC(C)C)CC4)nc23)ccn1` [isopropyl 4-(3-(2-methoxypyridin-4-yl)pyrazolo[1,5-a]pyrimidin-5-yl)piperazine-1-carboxylate]: the IC50 is at most 0.1 µM.
Then `CC(C)C[C@H](N)C(=O)N1CCN(c2ccn3ncc(Cl)c3n2)CC1` [(S)-2-amino-1-(4-(3-chloropyrazolo[1,5-a]pyrimidin-5-yl)piperazin-1-yl)-4-methylpentan-1-one], with at most 0.1 µM; and `COc1ccc(-c2cnn3ccc(N4CC[C@H](N(C)C(=O)OC(C)C)C4)nc23)c(OC)n1` [(S)-isopropyl (1-(3-(2,6-dimethoxypyridin-3-yl)pyrazolo[1,5-a]pyrimidin-5-yl)pyrrolidin-3-yl)(methyl)carbamate], with at most 0.1 µM.
Then `CC(C)(C)OC(=O)N1CCC[C@H]1CNc1ccn2ncc(C(F)(F)F)c2n1` [(S)-tert-butyl 2-(((3-(trifluoromethyl)pyrazolo[1,5-a]pyrimidin-5-yl)amino)methyl)pyrrolidine-1-carboxylate], with at most 0.01 µM; and `COc1ncc(F)cc1-c1cnn2ccc(N3CCN(C(=O)OC(C)C)CC3)nc12` [isopropyl 4-(3-(5-fluoro-2-methoxypyridin-3-yl)pyrazolo[1,5-a]pyrimidin-5-yl)piperazine-1-carboxylate], with at most 0.01 µM.
The same measure for `CC(C)(C)OC(=O)N1CCC[C@H]1CNc1ccn2ncc(-c3ccccc3)c2n1` [(S)-tert-butyl 2-(((3-phenylpyrazolo[1,5-a]pyrimidin-5-yl)amino)methyl)pyrrolidine-1-carboxylate]: at most 0.01 µM; for `COCCOc1ccccc1-c1cnn2ccc(N3CCN(C(=O)OC(C)C)CC3)nc12` [isopropyl 4-(3-(2-(2-methoxyethoxy)phenyl)pyrazolo[1,5-a]pyrimidin-5-yl)piperazine-1-carboxylate]: at most 0.1 µM.
In turn, `COCCCOC(=O)N1CCN(c2ccn3ncc(-c4cccnc4OC)c3n2)CC1` [3-methoxypropyl 4-(3-(2-methoxypyridin-3-yl)pyrazolo[1,5-a]pyrimidin-5-yl)piperazine-1-carboxylate] registered an IC50 of at most 0.01 µM.
On to `COc1ncccc1-c1cnn2ccc(N3CCN(C(=O)[C@H](N)CC(C)C)CC3)nc12` [(R)-2-amino-1-(4-(3-(2-methoxypyridin-3-yl)pyrazolo[1,5-a]pyrimidin-5-yl)piperazin-1-yl)-4-methylpentan-1-one], for which the IC50 is at most 0.1 µM.
`CCc1ccccc1-c1cnn2ccc(NC[C@@H]3CCCN3C(=O)OC(C)(C)C)nc12` [(S)-tert-butyl 2-(((3-(2-ethylphenyl)pyrazolo[1,5-a]pyrimidin-5-yl)amino)methyl)pyrrolidine-1-carboxylate]: the IC50 was at most 0.01 µM.
As for `COc1ncccc1-c1cnn2ccc(N3CCN(c4noc(C(C)C)n4)CC3)nc12` [5-isopropyl-3-(4-(3-(2-methoxypyridin-3-yl)pyrazolo[1,5-a]pyrimidin-5-yl)piperazin-1-yl)-1,2,4-oxadiazole], the IC50 was at most 0.1 µM.
With `COc1nc(C)ccc1-c1cnn2ccc(N(C)CCN(C)C(=O)OC(C)C)nc12` [isopropyl (2-((3-(2-methoxy-6-methylpyridin-3-yl)pyrazolo[1,5-a]pyrimidin-5-yl)(methyl)amino)ethyl)(methyl)carbamate], the IC50 was at most 0.1 µM.
Turning to `COC(=O)COC(=O)N1CCN(c2ccn3ncc(-c4cccnc4OC)c3n2)CC1` [2-methoxy-2-oxoethyl 4-(3-(2-methoxypyridin-3-yl)pyrazolo[1,5-a]pyrimidin-5-yl)piperazine-1-carboxylate], the 50% inhibitory concentration (IC50) is at most 0.1 µM.
In turn, `[2H]C1([2H])N(C(=O)OC(C)C)C([2H])([2H])C([2H])([2H])N(c2ccn3ncc(Br)c3n2)C1([2H])[2H]` [isopropyl 4-(3-bromopyrazolo[1,5-a]pyrimidin-5-yl)-d8-piperazine-1-carboxylate] showed a half-inhibitory concentration (IC50) of at most 0.1 µM.
Then `COc1nc(C)ccc1-c1cnn2ccc(N3CCN(C(=O)OC(C)C)CC3)nc12` [isopropyl 4-(3-(2-methoxy-6-methylpyridin-3-yl)pyrazolo[1,5-a]pyrimidin-5-yl)piperazine-1-carboxylate], with at most 0.01 µM; and `COc1ncccc1-c1cnn2ccc(N3CCN(C(=O)OCCOC(C)(C)C)CC3)nc12` [2-(tert-butoxy)ethyl 4-(3-(2-methoxypyridin-3-yl)pyrazolo[1,5-a]pyrimidin-5-yl)piperazine-1-carboxylate], with at most 0.01 µM.
Then `COc1ncccc1-c1cnn2ccc(N3CCN(C(=O)OCCN(C)C)CC3)nc12` [2-(dimethylamino)ethyl 4-(3-(2-methoxypyridin-3-yl)pyrazolo[1,5-a]pyrimidin-5-yl)piperazine-1-carboxylate], with at most 0.1 µM.
Take `COCCOC(=O)N1CCN(c2ccn3ncc(-c4cccnc4OC)c3n2)CC1` [2-methoxyethyl 4-(3-(2-methoxypyridin-3-yl)pyrazolo[1,5-a]pyrimidin-5-yl)piperazine-1-carboxylate]: the IC50 was at most 0.01 µM.
The same measure for `COc1ncccc1-c1cnn2ccc(N3CCN(C(=O)[C@@H]4COCCN4)CC3)nc12` [(S)-(4-(3-(2-methoxypyridin-3-yl)pyrazolo[1,5-a]pyrimidin-5-yl)piperazin-1-yl)(morpholin-3-yl)methanone]: at most 0.01 µM; for `COc1ncccc1-c1cnn2ccc(N3CCN(C(=O)OC(C)C)C3=O)nc12` [isopropyl 3-(3-(2-methoxypyridin-3-yl)pyrazolo[1,5-a]pyrimidin-5-yl)-2-oxoimidazolidine-1-carboxylate]: at most 1 µM.
Molecule `COc1ccccc1-c1cnn2ccc(NC[C@@H]3CCCN3C(=O)NC(C)(C)C)nc12` [(S)-N-(tert-butyl)-2-(((3-(2-methoxyphenyl)pyrazolo[1,5-a]pyrimidin-5-yl)amino)methyl)pyrrolidine-1-carboxamide] displayed an IC50 of at most 0.01 µM.
Consider `CC(C)C[C@H](N)C(=O)N1CCN(c2ccn3ncc(Br)c3n2)CC1` [(S)-2-amino-1-(4-(3-bromopyrazolo[1,5-a]pyrimidin-5-yl)piperazin-1-yl)-4-methylpentan-1-one], for which the IC50 was at most 0.1 µM.
The molecule `COCCOc1ncccc1-c1cnn2ccc(N3CCN(C(=O)OC(C)C)CC3)nc12` [isopropyl 4-(3-(2-(2-methoxyethoxy)pyridin-3-yl)pyrazolo[1,5-a]pyrimidin-5-yl)piperazine-1-carboxylate] registered an IC50 of at most 0.1 µM.
As for `COc1ccccc1-c1cnn2ccc(N3CCN(C(=O)OC(C)C)CC3)nc12` [isopropyl 4-(3-(2-methoxyphenyl)pyrazolo[1,5-a]pyrimidin-5-yl)piperazine-1-carboxylate], the IC50 is at most 0.01 µM.
The same measure for `COc1ncc(F)cc1-c1cnn2ccc(N3CCN(CCC(F)(F)F)CC3)nc12` [3-(5-fluoro-2-methoxypyridin-3-yl)-5-(4-(3,3,3-trifluoropropyl)piperazin-1-yl)pyrazolo[1,5-a]pyrimidine]: at most 1 µM; for `COc1ncccc1-c1cnn2ccc(NCCOC(C)(C)C)nc12` [N-(2-(tert-butoxy)ethyl)-3-(2-methoxypyridin-3-yl)pyrazolo[1,5-a]pyrimidin-5-amine]: at most 0.01 µM; for `CCOc1ncccc1-c1cnn2ccc(N3CCN(C(=O)OC(C)C)CC3)nc12` [isopropyl 4-(3-(2-ethoxypyridin-3-yl)pyrazolo[1,5-a]pyrimidin-5-yl)piperazine-1-carboxylate]: at most 0.01 µM.
`CCOCCOC(=O)N1CCN(c2ccn3ncc(-c4cccnc4OC)c3n2)CC1` [2-ethoxyethyl 4-(3-(2-methoxypyridin-3-yl)pyrazolo[1,5-a]pyrimidin-5-yl)piperazine-1-carboxylate] showed a half-inhibitory concentration (IC50) of at most 0.1 µM.
With `CC(C)OC(=O)N1CCN(c2ccn3ncc(I)c3n2)CC1` [isopropyl 4-(3-iodopyrazolo[1,5-a]pyrimidin-5-yl)piperazine-1-carboxylate], the IC50 is at most 0.1 µM.
Then `CC(C)OC(=O)N1CCN(c2ccn3ncc(-c4cccc5[nH]cnc45)c3n2)CC1` [isopropyl 4-(3-(1H-benzo[d]imidazol-4-yl)pyrazolo[1,5-a]pyrimidin-5-yl)piperazine-1-carboxylate], with at most 0.1 µM; and `CC(C)OC(=O)N1CCN(c2ccn3ncc(-c4cccnc4F)c3n2)CC1` [isopropyl 4-(3-(2-fluoropyridin-3-yl)pyrazolo[1,5-a]pyrimidin-5-yl)piperazine-1-carboxylate], with at most 0.01 µM; and `COC/C=C/c1cnn2ccc(N3CCN(C(=O)OC(C)C)CC3)nc12` [(E)-isopropyl 4-(3-(3-methoxyprop-1-en-1-yl)pyrazolo[1,5-a]pyrimidin-5-yl)piperazine-1-carboxylate], with at most 1 µM.
As to `COc1ncccc1-c1cnn2ccc(N3CCN(CC(F)(F)F)CC3)nc12` [3-(2-methoxypyridin-3-yl)-5-(4-(2,2,2-trifluoroethyl)piperazin-1-yl)pyrazolo[1,5-a]pyrimidine], the IC50 was at most 0.1 µM.
